Counter-ions that a name gives are not always drawn.
Experiment: In house cohesion test of pastes (mass loss after sintering and immersion in water)
Type: physicochemical
Conditions: for Effect of plasticiser in liquid carrier on paste cohesion: PLGA 95:5/PEG400/CS pellets, FIG. 4
Method: Pastes were prepared by mixing particles with a liquid carrier and their setting was assessed using an ‘in house’ cohesion test. Briefly, following paste sintering, aluminium foils containing the pastes were placed onto a sieve mesh and immersed to a depth of around 1 cm of water for 1 minute (FIG. 1). Afterwards, they were carefully removed from the sieve. The samples were freeze-dried and weighed so that mass loss could be estimated.
A 355 μm sieve (Endecotts, BS410/1986) was placed on to its dedicated collection tray. • 2×100 mg of particles were manually mixed in an aluminium foil (4×4 cm circa) with 70 μl of each liquid carrier. • The obtained pastes were left to sinter in a sealed plastic bag with humidity >90% for different times. • Following sintering at RT or 37° C. in a humidified environment (>90% RH), the aluminium foils containing the pastes were placed onto the sieve mesh. • A constant, gentle, circa 7 ml/sec flow of water (Millipore, Direct-Q® 3 UV) was applied to the sieve mesh, until the samples became immersed in circa 1 cm of water. • Following immersion, samples were allowed to remain immersed in the head of water for circa 1 minute. • After the 1 minute, the sieve was removed from the sieve tray and the aluminium foils containing the samples were carefully removed from the sieve. • The samples with the aluminium foil were freeze-dried and weighed so that mass loss could be estimated. • The sieve tray (which was still filled with water) was visually inspected for the presence of particles that may have been lost from the samples during.

Effect of plasticiser in liquid carrier on paste cohesion	Importance of plasticiser in liquid carrier for paste setting (PLGA50:50/PEG400/SIM pellets, sintering 10 to 60 min at 37° C., FIG. 6)	Compound
behave in a similar way	–	CC(=O)OCC(COC(C)=O)OC(C)=O [TA, triacetin]
behave in a similar way	–	CCOC(=O)CC(O)(CC(=O)OCC)C(=O)OCC [TEC, TriEthyl Citrate]
–	not important for paste setting	CCO [ethanol, Ethanol]
